Data taken from patent publication US9416141B2 (University of Washington through its Center for …, priority 2012, dated 2016).
Counter-ions that a name gives are not always drawn.

Test system: hair cells
Experiment: Hair cell toxicity assay in zebrafish (neomycin-induced hair cell death, DASPEI staining of neuromasts)
Type: in vivo
Settings: Danio rerio; for Emax at 25 µM: maximum observed @ 25 μM test compound; for EC50: zebrafish larvae 5-7 dpf, 1 h pre-treatment, then 200 micromolar neomycin + test compound 30 min, read-out: HC50 (concentration that would produce 50% hair cell survival); for Emax at 2.8 µM: maximum observed @ 2.8 μM test compound; for Emax at 0.9 µM: maximum observed @ 0.9 μM test compound; for Emax at 8.3 µM: maximum observed @ 8.3 μM test compound
Procedure, shortened: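 Zebrafish larvae 5-7 dpf pre-treated 1 h with compound (0.010-25 μM), then 30 min with 200 μM neomycin plus compound. DASPEI stained 10 neuromasts per fish, scored 0-2 (total 0-20), normalised to vehicle controls as % hair cell survival. HC50 linearly interpolated if survival reached ≥50%; HCmax is maximum survival.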

[1] = 200 micromolar neomycin, read-out: Max HC Protection (HCmax, % hair cell survival)

Row | Compound | Emax at 25 µM [1] [%] | EC50 [µM] | Emax at 2.8 µM [1] [%] | also measured
1 | CCCC[N+]1(C)CCc2c(sc(NC(=O)Nc3ccc(Cl)cc3)c2C(N)=O)C1 (stereo not drawn) [Example 219, 6-butyl-3-carbamoyl-2-{[(4-chlorophenyl)carbamoyl]amino}-6-methyl-4H,5H,6H,7H-thieno[2,3-c]pyridin-6-ium] | 92 | < 1 | – | –
2 | CCN1CCc2c(sc(NC(=O)Nc3ccc(CC(=O)O)cc3)c2C(N)=O)C1 [Example 33, 2-{4-[3-(3-Carbamoyl-6-ethyl-4,5,6,7-tetrahydrothieno[2,3-c]pyridin-2-yl)ureido]phenyl}acetic acid trifluoroacetate] | – | – | – | Emax at 0.93 µM (maximum observed @ 0.93 μM test compound, 200 micromolar neomycin, read-out: Max HC Protection (HCmax, % hair cell survival)): 9%
3 | NC(=O)c1c(NC(=O)Nc2ccc(Cl)cc2)sc2c1CCN1CCCCC21 (racemic) [Example 118, (+/−)-2-[3-(4-Chlorophenyl)ureido]-5,7,8,9,10,10a-hexahydro-4H-thieno[2,3-a]quinolizine-3-carboxamide hydrochloride] | 99 | 1 to 10 | – | –
4 | NC(=O)c1c(NC(=O)Nc2ccc(Cl)cc2)sc2c1CCN(CCCNC(=O)CCc1c[nH]c3ccccc13)C2 [Example 209, 2-{[(4-chlorophenyl)carbamoyl]amino}-6-{3-[3-(1H-indol-3-yl)propanamido]propyl}-4H,5H,6H,7H-thieno[2,3-c]pyridine-3-carboxamide] | – | < 1 | 98 | –
5 | NC(=O)c1c(NC(=O)Nc2ccc(Cl)cc2)sc2c1CCN(CC1CCCCC1)C2 [Example 16, 2-[3-(4-Chlorophenyl)ureido]-6-(cyclohexylmethyl)-4,5,6,7-tetrahydrothieno[23-c]pyridine-3-carboxamide hydrochloride] | – | 1 to 10 | 57 | –
6 | C[N+]1(CC2CCCCC2)CCc2c(sc(NC(=O)Nc3ccc(Cl)cc3)c2C(N)=O)C1 (stereo not drawn) [Example 152, 3-Carbamoyl-2-[3-(4-chlorophenyl)ureido]-6-(cyclohexylmethyl)-6-methyl-4,5,6,7-tetrahydrothieno[2,3-c]pyridin-6-ium iodide] | – | < 1 | – | Emax at 0.9 µM [1]: 78%
7 | NC(=O)c1c(NC(=O)Nc2ccc(Cl)cc2)sc2c1CC1CCC2N1CC1CCC1 (racemic) [Example 132, (+/−)-2-[3-(4-Chlorophenyl)ureido]-9-(cyclobutylmethyl)-5,6,7,8-tetrahydro-4H-5,8-epiminocyclohepta[b]thiophene-3-carboxamide hydrochloride] | – | < 1 | 97 | –
8 | C[N+]1(C2CCc3c(sc(NC(=O)Nc4ccc(Cl)cc4)c3C(N)=O)C2)CCC1 (stereo not drawn) [Example 170, 1-{3-Carbamoyl-2-[3-(4-chlorophenyl)ureido]-4,5,6,7-tetrahydrobenzo[b]thiophen-6-yl}-1-methylazetidin-1-ium iodide] | 85 | 1 to 10 | – | –
9 | CC(C)OC(=O)CC[N+]1(C)CCc2c(sc(NC(=O)Nc3ccc(Cl)cc3)c2C(N)=O)C1 (stereo not drawn) [Example 159, 3-Carbamoyl-2-[3-(4-chlorophenyl)ureido]-6-(3-isopropoxy-3-oxopropyl)-6-methyl-4,5,6,7-tetrahydrothieno[2,3-c]pyridin-6-ium iodide] | – | < 1 | 84 | –
10 | NC(=O)c1c(NC(=O)Nc2ccc(Cl)c3ccccc23)sc2c1CCN(CC1CCC1)C2 [Example 40, 2-[3-(4-Chloronaphthalen-1-yl)ureido]-6-(cyclobutylmethyl)-4,5,6,7-tetrahydrothieno[2,3-c]pyridine-3-carboxamide hydrochloride] | – | 1 to 10 | – | Emax at 8.3 µM [1]: 62%
11 | CC(C)(C)OC(=O)CCCCCN1CCc2c(sc(NC(=O)Nc3ccc(Cl)cc3)c2C(N)=O)C1 [Example 18, tert-Butyl 6-{3-carbamoyl-2-[3-(4-chlorophenyl)ureido]-4,5-dihydrothieno[2,3-c]pyridin-6(7H)-yl}hexanoate] | – | < 1 | 64 | –
12 | CC(C)[N+]1(C)CCc2c(sc(NC(=O)Nc3ccc(Cl)cc3)c2C(N)=O)C1 (stereo not drawn) [Example 191, 3-Carbamoyl-2-[3-(4-chlorophenyl)ureido]-6-isopropyl-6-methyl-4,5,6,7-tetrahydrothieno[2,3-c]pyridin-6-ium iodide] | – | < 1 | – | Emax at 8.3 µM [1]: 80%
13 | CC[N+]1(C)CCc2c(ccc(NC(=O)Nc3ccc(Cl)cc3)c2C(N)=O)C1 (stereo not drawn) [Example 172, 5-Carbamoyl-6-[3-(4-chlorophenyl)ureido]-2-ethyl-2-methyl-1,2,3,4-tetrahydroisoquinolin-2-ium iodide] | 66 | > 10 | – | –
14 | CCN1CCc2c(sc(NC(=O)Nc3cccc4c3ccn4C)c2C(N)=O)C1 [Example 84, 6-Ethyl-2-[3-(1-methyl-1H-indol-4-yl)ureido]-4,5,6,7-tetrahydrothieno[2,3-c]pyridine-3-carboxamide hydrochloride] | 4 | – | – | –
15 | CC(C)NC(=O)CCN1CCc2c(sc(NC(=O)Nc3ccc(Cl)cc3)c2C(N)=O)C1 [Example 57, 2-[3-(4-Chlorophenyl)ureido]-6-[3-(isopropylamino)-3-oxopropyl]-4,5,6,7-tetrahydrothieno[2,3-c]pyridine-3-carboxamide hydrochloride] | – | 1 to 10 | 50 | –
16 | CCOC(=O)CC[N+]1(C)CCc2c(sc(NC(=O)Nc3ccc(Cl)cc3)c2C(N)=O)C1 (stereo not drawn) [Example 160, 3-Carbamoyl-2-[3-(4-chlorophenyl)ureido]-6-(3-ethoxy-3-oxopropyl)-6-methyl-4,5,6,7-tetrahydrothieno[2,3-c]pyridin-6-ium chloride iodide] | – | 1 to 10 | 70 | –
17 | CC(C)(C)OC(=O)CCC[N+]1(C)CCc2c(sc(NC(=O)Nc3ccc(Cl)cc3)c2C(N)=O)C1 (stereo not drawn) [Example 154, 6-(4-tert-Butoxy-4-oxobutyl)-3-carbamoyl-2-[3-(4-chlorophenyl)ureido]-6-methyl-4,5,6,7-tetrahydrothieno[2,3-c]pyridin-6-ium trifluoroacetate] | – | < 1 | 96 | –
18 | CCN1CCc2c(sc(NC(=O)Nc3ccc(C(=O)OC(C)(C)C)cc3)c2C(N)=O)C1 [Example 29, tert-Butyl 4-[3-(3-carbamoyl-6-ethyl-4,5,6,7-tetrahydrothieno[2,3-c]pyridin-2-yl)ureido]benzoate] | 75 | 1 to 10 | – | –
19 | CCN1CCc2c(sc(NC(=O)C3(c4ccc(Cl)cc4)CC3)c2C(N)=O)C1 [Example 105, 2-[1-(4-chlorophenyl)cyclopropanecarboxamido]-6-ethyl-4,5,6,7-tetrahydrothieno[2,3-c]pyridine-3-carboxamide] | 7 | – | – | –
20 | CCN1CCc2c(sc(NC(=O)Nc3ccc(Cl)s3)c2C(N)=O)C1 [Example 94, 2-[3-(5-Chlorothiophen-2-yl)ureido]-6-ethyl-4,5,6,7-tetrahydrothieno[2,3-c]pyridine-3-carboxamide hydrochloride] | 69 | > 10 | – | –
21 | CCN1CCc2c(sc(NC(=O)Nc3ccc(Cl)cc3)c2C(=O)NCCO)C1 [Example 101, 2-[3-(4-Chlorophenyl)ureido]-6-ethyl-N-(2-hydroxyethyl)-4,5,6,7-tetrahydrothieno[2,3-c]pyridine-3-carboxamide hydrochloride] | 74 | 1 to 10 | – | –
22 | NC(=O)c1c(NC(=O)Nc2ccc(Cl)cc2)sc2c1CCN(CCCNC(=O)c1ccccc1)C2 [Example 212, 2-{[(4-chlorophenyl)carbamoyl]amino}-6-[3-(phenylformamido)propyl]-4H,5H,6H,7H-thieno[2,3-c]pyridine-3-carboxamide] | 103 | 1 to 10 | – | –
23 | NC(=O)c1c(NC(=O)Nc2ccc(Cl)cc2)sc2c1CCN(CCCNC(=O)CCc1ccc(C(F)(F)F)cc1)C2 [Example 218, 2-{[(4-chlorophenyl)carbamoyl]amino}-6-(3-{3-[4-(trifluoromethyl)phenyl]propanamido}propyl)-4H,5H,6H,7H-thieno[2,3-c]pyridine-3-carboxamide] | – | < 1 | 103 | –
24 | CN1CCN(CCN2CCc3c(sc(NC(=O)Nc4ccc(Cl)cc4)c3C(N)=O)C2)CC1 [Example 45, 2-[3-(4-Chlorophenyl)ureido]-6-[2-(4-methylpiperazin-1-yl)ethyl]-4,5,6,7-tetrahydrothieno[2,3-c]pyridine-3-carboxamide hydrochloride] | 78 | 1 to 10 | – | –
25 | CC[N+]1(C)CCc2c(sc(NC(=O)Nc3ccc(Br)cc3)c2C(N)=O)C1 (stereo not drawn) [Example 220, 2-{[(4-bromophenyl)carbamoyl]amino}-3-carbamoyl-6-ethyl-6-methyl-4H,5H,6H,7H-thieno[2,3-c]pyridin-6-ium] | 98 | < 1 | – | –
26 | COC(=O)C(C)(C)CN1C2CCC1c1sc(NC(=O)Nc3ccc(Cl)cc3)c(C(N)=O)c1C2 (racemic) [Example 134, (+/−)-Methyl 3-{3-carbamoyl-2-[3-(4-chlorophenyl)ureido]-5,6,7,8-tetrahydro-4H-5,8-epiminocyclohepta[b]thiophen-9-yl}-2,2-dimethylpropanoate hydrochloride] | – | – | – | Emax at 0.9 µM [1]: 11%
27 | CCN1CCc2c(sc(NC(=O)Nc3ccc4c(c3)OC(F)(F)O4)c2C(N)=O)C1 [Example 85, 2-[3-(2,2-Difluorobenzo[d][1,3]dioxol-5-yl)ureido]-6-ethyl-4,5,6,7-tetrahydrothieno[2,3-c]pyridine-3-carboxamide hydrochloride] | 63 | 1 to 10 | – | –
28 | NC(=O)c1c(NC(=O)Nc2ccc(Cl)cc2)sc2c1CCOC2 [Example 92, 2-[3-(4-Chlorophenyl)ureido]-5,7-dihydro-4H-thieno[2,3-c]pyran-3-carboxamide] | – | – | 22 | –
